{"source": "patent US20050071891A1", "about": "“Repressible sterility of animals” (priority 1999, published 2005)", "molecules": {"B1": {"name": "pzBMP2-ds: zBMP2 promoter drives about 800 bp of zBMP2 cDNA designed to fold back as dsRNA (SEQ ID NO:13) (nucleic acid)", "DNA": "GAATTCATGAGGAACTTAGGAGACGACGGGAACGCAGACCGGCCACAGCGCTTCCTCCTCCGGAACTGACTGATCATGGTCGCCGTGGTCCGCGCTCTCACGGTGCTGTTGCTCGGTCAGGTGTTGCTGGGAGGTGCCGTTGGACTCATTCCCGAGATCGACCGACGGAAATACAGTGATTCGGGGAGACACACACCGGAGCGAACTGATACAAACTTCCTGAACGAGTTTGAGCTACGCTTGCTCAATATGTTCGGATTGAAGCGAAAACCCACCCCAAGCAAATCGGCAGTGGTCCCTCAGTACATGCTGGACTTGTATTATATGCACTCTGAAAACGATGACCCGAACATTCGGCGCCCGAGGAGCACTATGGGAAAACATGTAGAAAGGGCAGCCAGCAGAGCAAACACGATACGAAGTTTTCATCACGAAGAGGCTTTCGAGGCACTGTCCAGCCTGAAAGGAAAAACAACGCAGCAGTTTTTCTTCAACCTTACCTCCATTCCTGTCGACTGCCGATTTGCTTGGGGTGGGTTTTCGCTTCAATCCGAACATATTGAGCAAGCGTAGCTCAAACTCGTTCAGGAAGTTTGTATCAGTTCGCTCCGGTGTGTGTCTCCCCGAATCACTGTATTTCCGTCGGTCGATCTCGGGAATGAGTCCAACGGCACCTCCCAGCAACACCTGACCGAGCAACAGCACCGTGAGAGCGCGGACCACGGCGACCATGATCAGTCAGTTCCGGAGGAGGAAGCGCTGTGGCCGGTCTGCGTTCCCGTCGTCTCCTAAGTTCCTCATCTGCAGCAATTGGATATCAAGCTTATCGATGATGATCCAGACATGATAAGATACATTGATGAGTTTGGACAAACCNCANCTAGAATGCAGTGAAAAAAATGCTTTATTTGTGAAATTTGTGATGCTATTGCTTTATTTGTAACCATTATAAGCTGCAATAAACAAGTTAACNACAACAATTGCATTCATTTTATGTTTCAGGTTCAGNGGGAGGTGTGGGAGGTTTTTTAAAGCAAGTAAAACCTCTNCAAATGTGGTATGGCTGATTATGATCCTCTAGATCAGATCCACTAGTTCTAGAGCGGCCGCCACCGCGGTGGAGCTC", "modifications": "Blocker Molecule"}}, "key": {"ZF4 cells": {"test_system": "ZF4 cells", "assay": "Tet-off system in zebrafish cell culture, EGFP reporter", "type": "cell-based", "settings": "doxycycline 0.2 μg/ml, 72 h, pTet-Off + pTRE-EGFP cells", "description": "The applicant first tested the functionality of the Tet-off system in zebrafish cell cultures. The cell culture was established using ZF4 cells as previously described (Driever and Rangini, 1993). Cells were transfected with the DNAs using Effectene liposomes (Qiagen) according to the manufacturer's instructions. Cells were initially transfected with pTet-Off and placed under neomycin selection for 1 month. Neomycin-resistant cells were then transfected with pTRE-EGFP, and the selection plasmid pTK-Hyg, and placed under hygromycin selection for two weeks. EGFP expression was determined by examining and counting cells with obvious fluorescence and by examination of cell lysates using a fluorometer. Cells were grown in medium with or without doxycycline (0.2 μg/ml) for 72 h prior to assessment of gene expression, or were rinsed of doxycycline and assessed for reporter gene expression 72 h after removal of doxycycline."}, "P19-pSFM 7 cells [1]": {"test_system": "P19-pSFM 7 cells", "assay": "Luciferase activity of pSFM 25 in P19 clones stably integrated with pSFM 7", "type": "cell-based, mouse", "settings": "doxycycline at 1 μg/ml, clone 46", "protocol": "Stably integrated P19 clones were obtained by using BioRad Gene Pulser II electroporation system. 30 μg DNA electroporated into 10 million cells under following conditions 960 μF and 0.16 kV in a 0.4 cm cuvette (0.4 kV/cm). The next day normal media were replaced with appropriate selection media (300 μg/ml G418).\nSelection of a P19 cell line stably integrated with a goosecoid-dependent TET-OFF transactivator P19 cells were electroporated with pSFM 7 (Goosecoid promoter-TET/OFF) linearised with ApaLI and selected for stable integration.\nTable 20 showes the luciferase activities of pSFM 25 (TRE luciferase+) shown in counts per second (cps) of transiently transfected in P19-pSFM 7 cells.\nAddition of doxycycline at 1 μg/ml reduced luciferase activity from pSFM 25 in this clone by 90 fold. This clone, containing stably integrated pSFM 7 was therefore designated P19-pSFM 7 and used for further testing."}, "P19-pSFM 7 cells [2]": {"test_system": "P19-pSFM 7 cells", "assay": "Expression patterns of reporter constructs in P19-pSFM 7 cells", "type": "cell-based, mouse", "settings": "transfected into P19-pSFM 7 cells", "protocol": "Fluorescent and transmitted light images were acquired using a CCD camera with a microscope. […] The luminescence assays were conducted by using a dark 96 well plate was done by Victor2 from Wallac or by Topcount NXT from Can berra Packard.\nThe first stage for testing blocker constructs is to set up an appropriate cell system to detect expression of reporter constructs. Initially, either pdsRED-N1 (CMV promoter RFP), pSFM 6 (CMV promoter goosecoid cDNA fused to RFP) or pSFM 24 (TRE EGFP) were transfected into P19-pSFM 7 cells to test the expression patterns of the EGFP, RFP and goosecoid-fused to RFP proteins (FIG. 37). […] In these cases, RFP expression fused to goosecid in the nucleus is expected to be inhibited in the presence of an appropriate blocker."}, "zBMP2": {"test_system": "zBMP2", "assay": "Injection of zBMP2 antisense and double stranded DNA constructs into zebrafish embryos", "type": "in vivo", "settings": "100 μg/ml, 1-4 cell stage embryos", "protocol": "All the DNA preparations were appropriately linearized and gel purified (Qiaquick Gel Extraction Kit) before injection. Needles were made from borosilicate glass capillaries with filaments (GC100TF-15, Clark Electromedical instruments) using a P-80PC micropipette puller (Sutter Instrument Co.). The needle was back-filled with purified DNA diluted to 100 ng/μl in 1× injection buffer (10×; 50 mM Tris; 5 mM EDTA; 1M KCl, pH7.2) using a hand pulled pipette. Injections were carried out on a dissection microscope fitted with two, 3-dimensional Narshige MN-151 micromanipulators. Embryos were held in place during injection by a hydraulically (mineral oil) driven holding pipette. Injection of DNA solution was facilitated pneumatically using a 3-way foot operated plunge valve (Festo Engineering), connected between the injection needle holder and nitrogen tank. Injection was performed on one-cell stage embryos, unless specifically indicated otherwise. Injected embryos were incubated and reared as described above.\nOn confirming the ability of in vitro transcribed BMP2 antisense and double stranded transcripts to disrupt larval development, DNA constructs capable of expressing the antisense and double stranded transcripts in vivo were developed and tested. […]"}}, "note": "Several values for one entry are separate records, joined by “and”; a condition that tells them apart may be missing. Equal entries are not always repeated.", "data": [{"molecule": "C[C@H]1c2cccc(O)c2C(=O)C2=C(O)[C@]3(O)C(=O)C(C(N)=O)=C(O)[C@@H](N(C)C)[C@@H]3[C@@H](O)[C@@H]21", "note": "[doxycycline, reference compound]", "values": [{"measurement": "EGFP gene expression relative to cells not exposed to doxycycline", "setting": "ZF4 cells", "value": "approximately 3%"}, {"measurement": "reduction of luciferase activity from pSFM 25", "setting": "P19-pSFM 7 cells [1]", "value": 90, "unit": "fold"}]}, {"molecule": "pSFM 6: goosecoid cDNA fused to red fluorescent protein in pDSRed1-N1", "values": [{"measurement": "cellular location of reporter expression", "setting": "P19-pSFM 7 cells [2]", "value": "detected in the nucleus"}]}, {"molecule": "B1", "values": [{"measurement": "Number Deformed", "setting": "zBMP2", "value": "21 and 22"}, {"measurement": "mortality, percentage", "setting": "zBMP2", "value": "14.3% and 16.5%"}]}]}
